Results: publication PMC12698583, “Efficacy of sulfonamides targeting malic enzyme in an animal model of Chagas disease” (Frontiers in Pharmacology, 2025)

Columns and labels:
Stability in HBSS buffer = type: physicochemical; conditions: 37°C, 2 hours
Procedure: The compounds were evaluated for chemical stability in Hanks’ Balanced Salt Solution (HBSS) over a 2-hour incubation period at 37°C. Stock solutions prepared in DMSO were diluted in HBSS to the desired test concentration. Samples were collected at time zero and after 2 hours of incubation. The remaining concentration of each compound was quantified by HPLC-UV, with stability assessed by comparing the percentage of compound remaining after 2 hours relative to the initial concentration.

[1] = Oral bioavailability (plasma concentration); type: in vivo, BALB/c mice; conditions: mice; for concentration at 1 h: female, BALB/c, mouse, plasma, 50 mg/kg, oral administration, after 1 h; for plasma concentration (in words): single oral dose 50 mg/kg, 5-60 min
Procedure: For the in vivo assays, female BALB/c mice, aged between 8 and 9 weeks and weighing approximately 25 g, were used. […] After preparation, three animals received a single oral dose of 50 mg/kg for each compound via gavage. The control group received only the vehicle. Blood samples were collected at 5-, 15-, 30-, 45-, and 60-minute post-administration using submandibular vein puncture, retro-orbital collection, and intracardiac (terminal) puncture. The mice were maintained under inhalation anesthesia with 3% isoflurane throughout the sampling period to ensure animal welfare. Blood samples were transferred to heparin-containing tubes and processed by centrifugation (4,000 rpm, 10 min, 4 °C) to separate the plasma. The obtained plasma was transferred to clean vials and stored at -80 °C until analysis. Compound quantification was performed using ultra-performance liquid chromatography coupled with tandem mass spectrometry (UPLC-MS/MS).

Kinetic solubility = type: physicochemical; conditions: 25 °C
Procedure: These conditions simulate stomach acidity, plasma neutrality, and intestinal basicity.
For the chemical stability experiment, the compounds were evaluated under the same conditions with an additional incubation at 37 °C for a period of 24 h. The analysis was performed using an analytical method developed and validated by high-performance liquid chromatography with UV detection (HPLC-UV). Compounds were quantified in different pH media by comparing the areas where the substances were completely soluble with those in the reaction media. The experiments were performed in a triplicate.
These conditions simulate stomach acidity, plasma neutrality, and intestinal basicity. […] For the chemical stability experiment, the compounds were evaluated under the same conditions with an additional incubation at 37°C for a period of 24 hours. The analysis was performed using an analytical method developed and validated by high-performance liquid chromatography with UV detection (HPLC-UV). Compounds were quantified in the different pH media by comparing the areas where the substances were completely soluble with those in the reaction media. The experiments were performed in triplicate.

[2] = tested on: T. cruzi Dm28c strain intracellular form infecting H9c2 rat cardiomyoblasts; assay: T. cruzi intracellular image-based assay; type: cell-based, Trypanosoma cruzi; conditions: for SI: Selectivity index; for EC50: host cells infected by T. cruzi amastigotes, 72 h treatment
Procedure: Tested compounds were dissolved and serially diluted in dimethylsulfoxide (DMSO) using a half-log dilution across six concentrations. Intermediate plates were prepared by diluting compounds 1:25 in DMEM (Dulbecco’s Modified Eagle Medium) with 10% FBS (Fetal Bovine Serum). The assay was based on [Fredo Naciuk et al. (2020)], with minor modifications. Briefly, T. cruzi trypomastigotes (from LLC-MK2 cultures, 6 days post-infection) were used to infect H9c2 rat cardiomyoblasts overnight (16–18 h) at MOI 1. After washing with PBS, cells were trypsinized and resuspended in DMEM at 2.3 × 10^4 cells/mL. Then, 65 μL per well was plated in 384-well plates and incubated for 24 h (37 °C, 5% CO2, >95% humidity). Subsequently, 7.5 μL of compound solution was added (final [DMSO] 0.4%). After 72 h of treatment, cells were fixed with 4% PFA and stained with Hoechst 33342 (4 μg/mL). Six images per well were acquired using the Operetta system (PerkinElmer) and analyzed with Columbus software to quantify infected cells (≥3 cytoplasmic parasite spots).

[3] = molecular target: T. cruzi malic enzyme (TcME) (Trypanosoma cruzi, UniProt Q4DJ68); assay: Malic enzyme (TcME) inhibition assay, diaphorase/resazurin coupled; type: biochemical; conditions: concentration necessary to inhibit 50% of T. cruzi Malic enzyme enzymatic activity
Procedure: The TcME inhibition assay was performed as previously described, with minor modifications ([Mercaldi et al., 2021]). Briefly, a coupled assay with the enzyme diaphorase and resorufin fluorescence (Ex 545 nm/Em 600 nm) was recorded every 30 s for 6 min in a CLARIOstar plate reader (BMG LabTech). The final concentrations of reagents in the assay were: 0.02 mM NADP+, 0.4 mM L-aspartate, 0.45 nM TcMEc, 1 U/mL diaphorase, and 10 μM resazurin, all in 50 mM Tris-HCl buffer containing 50 mM NaCl and 2 mM MnCl2 at pH 7.5. The reaction was initiated by adding 1.32 mM L-malate.

[4] = Metabolic stability in mouse liver microsomes; type: in vitro ADME; conditions: for half-life at 1 μM: CD-1, pH 7.4, mouse liver microsomes, 0.25 mg/mL, read-out: T1/2 - mouse; for parent compound remaining: mouse microsomes
Procedure: The in vitro metabolic stability of the compound was evaluated in pooled human liver microsomes (HLM, 20 mg/mL), Sprague-Dawley rat liver microsomes (RLM, 20 mg/mL), and CD-1 mouse liver microsomes (MLM, 20 mg/mL), all purchased from GIBCO (Thermo Fisher Scientific). NADPH regenerating system (GentestTM) was prepared in potassium phosphate buffer (100 mM, pH 7.4). […] The reaction was stopped by adding acetonitrile, followed by vortex homogenization, sonication for 5 min, and centrifugation at 10,000 g for 5 min at 4 °C. The supernatants were transferred to glass vials for LC-MS/MS analysis. The half-life was estimated based on the area under the curve (AUC) through regression analysis of the concentration decay over time. This calculation was performed using the following formula: t1/2=LN2/Kel
Where LN is the neperian logarithm, and K is the slope of the regression of the LN of AUC as a function of time. Then, the microsomal intrinsic clearance (CLint, mic) was calculated using the following equation: CLint.mic=LN2/t1/2 x VI/PM
Where V is the incubation volume (µL), and PM is the microsomal protein concentration (mg). This intrinsic clearance can be extrapolated to the whole liver (CLint,hep) using the following equation: CLint.hep=CLint.mic x ML x LB
ML is the microsomal yield, and LB is the liver weight (g) per kilogram of body weight.
To ensure the linearity of the elimination phase and to avoid the influence of points outside the log-linear range, the points deviated from the expected first-order kinetic profile were excluded. The supernatants were analyzed by UPLC-Xevo-TQ-XS from Waters. Chromatographic separation was performed on an Acquity UPLC BEH C18 column (2.1 × 100 mm, 1.7 µm particle size), maintained at 40 °C. The mobile phases were (A) water with 0.1% formic acid and (B) acetonitrile with 0.1% formic acid. […] The total run time was 5 min.

[5] = across pH conditions (1.7, 7.4, 8.9)

Sequence of T. cruzi malic enzyme (TcME) (Q4DJ68 entry or part of it): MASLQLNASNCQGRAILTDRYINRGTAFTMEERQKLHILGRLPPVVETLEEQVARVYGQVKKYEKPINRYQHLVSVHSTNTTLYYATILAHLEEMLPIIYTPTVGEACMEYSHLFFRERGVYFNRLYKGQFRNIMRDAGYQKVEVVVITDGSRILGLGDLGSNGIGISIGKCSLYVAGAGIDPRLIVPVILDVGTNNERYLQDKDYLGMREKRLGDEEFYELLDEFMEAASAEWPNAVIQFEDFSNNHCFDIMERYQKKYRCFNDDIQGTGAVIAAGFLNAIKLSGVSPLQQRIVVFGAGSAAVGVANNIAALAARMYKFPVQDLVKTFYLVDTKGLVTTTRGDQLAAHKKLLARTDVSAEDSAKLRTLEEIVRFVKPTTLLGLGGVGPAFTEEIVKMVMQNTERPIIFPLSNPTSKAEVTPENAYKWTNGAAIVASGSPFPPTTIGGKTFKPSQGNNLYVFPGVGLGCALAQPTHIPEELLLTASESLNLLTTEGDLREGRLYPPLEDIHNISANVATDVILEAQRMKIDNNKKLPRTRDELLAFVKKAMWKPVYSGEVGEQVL

| SMILES | chemical stability in HBSS buffer (in words) (Stability in HBSS buffer) | concentration at 1 h [1] [nM] | plasma concentration (in words) [1] | Kinetic solubility (Kinetic solubility; acidic pH (1.7), 5 µM) [%] | Kinetic solubility (Kinetic solubility; [5]) | Kinetic solubility (Kinetic solubility; basic pH (8.9), 5 µM) [%] | Kinetic solubility (Kinetic solubility; neutral pH (7.4), 5 µM) [%] | SI [2] | IC50 [3] [nM] | microsomal CLint at 1 μM ([4]; CD-1, mouse, liver microsomes, pH 7.4, mouse liver microsomes, read-out: CL int. mic.) [µL/min/mg] | half-life at 1 μM [4] [min] | parent compound remaining ([4]; 15 min) | CL int. hep. ([4]; mouse, extrapolated to the whole liver) [mL/min/kg] | EC50 ([2]; Trypanosoma cruzi, H9c2, 72 h) [nM] | EC50 [2] [nM] | parent compound remaining ([4]; 5 min) [%] |
| --- | --- | --- | --- | --- | --- | --- | --- | --- | --- | --- | --- | --- | --- | --- | --- | --- |
| CC(C)Oc1ccc(NS(=O)(=O)c2cccc(NC(=O)c3cnccn3)c2)cc1 [AC-M110, N-(3-(N-(4-isopropoxyphenyl)sulfamoyl)phenyl)pyrazine-2-carboxamide] | remained chemically stable | ≤ 1000 | between EC50 and EC90 | 65 | above 60% | 74 | 65 | 9092 | 7000 | 339 | 2 | less than 1% | 1370 |  |  |  |
| COc1ccc(NS(=O)(=O)c2cccc(NC(=O)c3cnccn3)c2)cc1 [AC-R008, N-(3-(N-(4-methoxyphenyl)sulfamoyl)phenyl)pyrazine-2-carboxamide] | remained chemically stable | ≤ 1000 | between EC50 and EC90 | 75 | above 60% | 75 | 75 | 108 | 500 |  | 3 | less than 1% |  | 920 | < 1000 | 5 |
